{"source": "patent US20240335442A1", "about": "(Eurofarma Laboratórios S.A., priority 2021, published 2024)", "key": {"[1]": {"biological_target": "human sodium channel Nav 1.8 (Homo sapiens (Human), UniProt Q9Y5Y9)", "sequence (Q9Y5Y9 whole entry)": "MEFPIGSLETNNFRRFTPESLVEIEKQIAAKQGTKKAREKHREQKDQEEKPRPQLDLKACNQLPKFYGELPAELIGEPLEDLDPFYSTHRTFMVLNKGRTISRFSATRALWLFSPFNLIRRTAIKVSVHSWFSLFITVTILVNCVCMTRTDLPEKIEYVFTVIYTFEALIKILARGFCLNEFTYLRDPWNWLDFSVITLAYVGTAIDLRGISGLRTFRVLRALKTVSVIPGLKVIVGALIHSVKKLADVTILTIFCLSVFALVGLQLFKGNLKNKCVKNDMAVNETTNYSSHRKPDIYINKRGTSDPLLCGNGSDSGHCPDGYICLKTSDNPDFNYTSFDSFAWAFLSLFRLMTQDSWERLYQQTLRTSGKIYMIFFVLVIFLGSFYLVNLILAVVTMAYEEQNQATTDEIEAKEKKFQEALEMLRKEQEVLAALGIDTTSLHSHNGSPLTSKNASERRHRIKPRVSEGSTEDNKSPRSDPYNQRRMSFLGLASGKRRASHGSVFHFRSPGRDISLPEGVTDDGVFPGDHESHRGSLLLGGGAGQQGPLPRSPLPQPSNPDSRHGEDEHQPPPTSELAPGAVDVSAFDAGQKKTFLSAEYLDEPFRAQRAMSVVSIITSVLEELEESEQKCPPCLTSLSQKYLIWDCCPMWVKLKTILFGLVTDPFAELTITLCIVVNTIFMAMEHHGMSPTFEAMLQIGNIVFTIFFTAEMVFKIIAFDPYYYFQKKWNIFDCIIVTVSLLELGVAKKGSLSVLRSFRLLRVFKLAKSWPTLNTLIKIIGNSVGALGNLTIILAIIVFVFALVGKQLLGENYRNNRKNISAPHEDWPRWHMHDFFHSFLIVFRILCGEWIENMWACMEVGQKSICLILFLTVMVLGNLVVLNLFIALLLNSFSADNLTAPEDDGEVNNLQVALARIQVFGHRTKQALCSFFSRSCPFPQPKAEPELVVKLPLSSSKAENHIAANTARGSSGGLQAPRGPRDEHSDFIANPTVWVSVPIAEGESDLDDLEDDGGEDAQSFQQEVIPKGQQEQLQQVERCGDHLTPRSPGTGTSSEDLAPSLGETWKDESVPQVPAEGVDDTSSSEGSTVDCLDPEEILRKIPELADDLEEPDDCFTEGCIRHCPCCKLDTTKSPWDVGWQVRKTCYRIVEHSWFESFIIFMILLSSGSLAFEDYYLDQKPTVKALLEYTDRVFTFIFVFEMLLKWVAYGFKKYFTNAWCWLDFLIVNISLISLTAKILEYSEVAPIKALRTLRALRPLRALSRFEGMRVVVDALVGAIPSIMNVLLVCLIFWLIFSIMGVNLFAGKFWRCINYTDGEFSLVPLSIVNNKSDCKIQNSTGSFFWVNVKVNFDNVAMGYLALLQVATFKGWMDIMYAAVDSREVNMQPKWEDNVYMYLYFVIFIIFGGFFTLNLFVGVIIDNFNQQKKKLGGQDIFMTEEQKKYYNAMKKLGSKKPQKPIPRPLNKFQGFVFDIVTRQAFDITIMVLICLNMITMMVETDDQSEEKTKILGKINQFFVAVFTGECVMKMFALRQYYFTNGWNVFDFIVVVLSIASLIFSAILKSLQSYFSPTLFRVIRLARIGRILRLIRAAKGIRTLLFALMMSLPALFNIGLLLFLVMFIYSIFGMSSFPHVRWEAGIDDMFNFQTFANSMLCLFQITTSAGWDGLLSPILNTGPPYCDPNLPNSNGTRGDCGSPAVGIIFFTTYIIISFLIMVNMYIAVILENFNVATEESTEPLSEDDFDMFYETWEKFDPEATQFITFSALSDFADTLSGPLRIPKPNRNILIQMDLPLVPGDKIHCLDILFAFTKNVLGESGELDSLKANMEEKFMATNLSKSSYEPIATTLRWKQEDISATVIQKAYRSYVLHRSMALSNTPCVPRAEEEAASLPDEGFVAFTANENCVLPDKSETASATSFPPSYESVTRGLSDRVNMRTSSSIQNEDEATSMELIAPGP", "experiment": "Automated whole-cell voltage-clamp (ScreenPatch 384P), Nav 1.8 sodium current, Protocol 2", "type": "cell-based", "details": "read-out: Nav1.8 IC50", "in_short": "(§1)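 CHO cells stably expressing human Nav1.7 or Nav1.8, automated whole-cell clamp, room temperature, ≥5 min exposure at eight concentrations. Protocol 1: hold −90 mV, 0.1 Hz, test pulse 0 mV (Nav1.7) or 10 mV (Nav1.8). Protocol 2: hold −100 mV with 8 s −40 mV inactivating step, 0.05 Hz. IC50 from Hill fit of TP1A peak-current block, normalized to vehicle and positive control.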"}, "[2]": {"biological_target": "human sodium channel Nav 1.7 (Homo sapiens (Human), UniProt Q15858)", "sequence (Q15858 whole entry)": "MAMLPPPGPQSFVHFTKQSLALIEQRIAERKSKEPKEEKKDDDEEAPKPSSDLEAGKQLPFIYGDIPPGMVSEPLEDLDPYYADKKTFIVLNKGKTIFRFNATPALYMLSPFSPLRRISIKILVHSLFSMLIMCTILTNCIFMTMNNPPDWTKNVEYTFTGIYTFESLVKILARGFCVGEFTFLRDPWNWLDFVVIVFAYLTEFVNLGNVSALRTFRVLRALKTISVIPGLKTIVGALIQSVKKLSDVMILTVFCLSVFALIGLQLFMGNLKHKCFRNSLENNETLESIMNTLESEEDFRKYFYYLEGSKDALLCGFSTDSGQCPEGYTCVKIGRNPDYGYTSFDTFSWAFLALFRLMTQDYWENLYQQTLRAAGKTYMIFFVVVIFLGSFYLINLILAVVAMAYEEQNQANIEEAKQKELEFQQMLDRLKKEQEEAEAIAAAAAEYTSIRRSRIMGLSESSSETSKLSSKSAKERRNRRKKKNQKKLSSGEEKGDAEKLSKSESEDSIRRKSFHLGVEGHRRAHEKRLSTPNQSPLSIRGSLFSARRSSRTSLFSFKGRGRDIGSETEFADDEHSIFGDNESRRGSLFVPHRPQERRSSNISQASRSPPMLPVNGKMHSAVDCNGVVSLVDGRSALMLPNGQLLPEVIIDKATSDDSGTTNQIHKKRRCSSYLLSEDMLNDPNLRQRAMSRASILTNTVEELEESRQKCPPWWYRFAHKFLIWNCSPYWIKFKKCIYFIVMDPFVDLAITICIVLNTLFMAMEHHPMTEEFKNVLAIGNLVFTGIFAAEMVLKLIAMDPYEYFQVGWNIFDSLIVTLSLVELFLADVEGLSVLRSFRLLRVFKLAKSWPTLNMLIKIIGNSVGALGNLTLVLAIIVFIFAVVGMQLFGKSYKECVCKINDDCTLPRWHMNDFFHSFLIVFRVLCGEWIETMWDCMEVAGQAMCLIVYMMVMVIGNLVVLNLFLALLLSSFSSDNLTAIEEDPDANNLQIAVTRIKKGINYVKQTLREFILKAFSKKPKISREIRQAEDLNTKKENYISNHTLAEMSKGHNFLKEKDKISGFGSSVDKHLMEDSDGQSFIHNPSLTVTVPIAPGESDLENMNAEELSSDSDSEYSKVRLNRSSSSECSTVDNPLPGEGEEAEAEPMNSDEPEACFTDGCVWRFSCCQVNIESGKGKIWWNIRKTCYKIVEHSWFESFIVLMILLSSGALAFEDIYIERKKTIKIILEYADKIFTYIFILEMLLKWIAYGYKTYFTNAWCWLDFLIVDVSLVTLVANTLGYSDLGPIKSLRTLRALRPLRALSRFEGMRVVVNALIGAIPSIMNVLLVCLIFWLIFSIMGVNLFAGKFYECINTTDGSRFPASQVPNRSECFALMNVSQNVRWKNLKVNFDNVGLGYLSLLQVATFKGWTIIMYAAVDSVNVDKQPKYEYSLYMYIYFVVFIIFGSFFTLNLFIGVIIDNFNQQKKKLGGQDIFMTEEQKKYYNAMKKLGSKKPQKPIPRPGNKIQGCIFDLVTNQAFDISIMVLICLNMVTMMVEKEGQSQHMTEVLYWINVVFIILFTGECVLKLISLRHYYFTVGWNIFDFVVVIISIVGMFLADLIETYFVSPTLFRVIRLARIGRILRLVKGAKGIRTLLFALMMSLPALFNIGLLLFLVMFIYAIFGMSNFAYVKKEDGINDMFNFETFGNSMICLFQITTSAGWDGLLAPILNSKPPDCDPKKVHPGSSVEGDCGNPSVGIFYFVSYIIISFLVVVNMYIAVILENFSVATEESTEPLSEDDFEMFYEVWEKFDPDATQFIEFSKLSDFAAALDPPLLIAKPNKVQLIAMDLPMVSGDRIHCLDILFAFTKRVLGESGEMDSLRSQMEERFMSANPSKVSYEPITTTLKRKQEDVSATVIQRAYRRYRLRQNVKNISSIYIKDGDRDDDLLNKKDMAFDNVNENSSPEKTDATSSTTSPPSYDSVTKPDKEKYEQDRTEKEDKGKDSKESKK", "experiment": "Automated whole-cell voltage-clamp (ScreenPatch 384P), Nav 1.7 sodium current, Protocol 2", "type": "cell-based", "details": "read-out: Nav1.7 IC50", "in_short": "as §1"}}, "data": [{"smiles": "CCOc1ccc(-c2cncc(C(=O)N/N=C/c3cccc(OC)c3)n2)c(OCC)c1", "note": "[Compound 153, (E)-6-(2,4-diethoxyphenyl)-N′-(3-methoxybenzylidene)pyrazine-2-carbohydrazide]", "values": [{"measurement": "IC50", "setting": "[1]", "value": 121, "unit": "nM"}, {"measurement": "IC50", "setting": "[2]", "value": 228, "unit": "nM"}]}, {"smiles": "CCOc1ccc(-c2cncc(C(=O)N/N=C/c3cccc(OC)c3)n2)c(OC(C)C)c1", "note": "[Compound 154, (E)-6-(4-ethoxy-2-isopropoxyphenyl)-N′-(3-methoxybenzylidene)pyrazine-2-carbohydrazide]", "values": [{"measurement": "IC50", "setting": "[1]", "value": "> 1000", "unit": "nM"}, {"measurement": "IC50", "setting": "[2]", "value": 1390, "unit": "nM"}]}, {"smiles": "COc1cc(/C=N/NC(=O)c2cncc(-c3ccc(OC)cc3OC(C)C)n2)cc(OC)c1", "note": "[Compound 156, (E)-N′-(3,5-dimethoxybenzylidene)-6-(2-isopropxy-4-methoxyphenyl)pyrazine-2-carbohydrazide]", "values": [{"measurement": "IC50", "setting": "[1]", "value": "> 1000", "unit": "nM"}, {"measurement": "IC50", "setting": "[2]", "value": 4790, "unit": "nM"}]}, {"smiles": "COc1cc(/C=N/NC(=O)c2cncc(-c3ccc(OC4CCCC4)cc3Cl)n2)cc(OC)c1", "note": "[Compound 157, (E)-6-(2-chloro-4-(cyclopentyloxy)phenyl)-N′-(3,5-dimethoxybenzylidene)pyrazine-2-carbohydrazide]", "values": [{"measurement": "IC50", "setting": "[1]", "value": 456, "unit": "nM"}, {"measurement": "IC50", "setting": "[2]", "value": 180, "unit": "nM"}]}, {"smiles": "CCCCOc1ccc(-c2cncc(C(=O)N/N=C/c3cc(OC)cc(OC)c3)n2)c(Cl)c1", "note": "[Compound 158, (E)-6-(4-butoxy-2-chlorophenyl)-N′-(3,5-dimethoxybenzylidene)pyrazine-2-carbohydrazide]", "values": [{"measurement": "IC50", "setting": "[1]", "value": 282, "unit": "nM"}, {"measurement": "IC50", "setting": "[2]", "value": 245, "unit": "nM"}]}, {"smiles": "COc1cc(/C=N/NC(=O)c2cncc(-c3ccc(OCC(C)C)cc3Cl)n2)cc(OC)c1", "note": "[Compound 159, (E)-6-(2-chloro-4-isobutoxyphenyl)-N′-(3,5-dimethoxybenzylidene)pyrazine-2-carbohydrazide]", "values": [{"measurement": "IC50", "setting": "[1]", "value": 293, "unit": "nM"}, {"measurement": "IC50", "setting": "[2]", "value": 217, "unit": "nM"}]}, {"smiles": "COc1cc(/C=N/NC(=O)c2cncc(-c3ccc(OC)cc3OCCN(C)C)n2)cc(OC)c1", "note": "[Compound 160, (E)-N′-(3,5-dimethoxybenzylidene)-6-(2-(2-(dimethylamino)ethoxy)-4-methoxyphenol)pyrazine-2-carbohydrazide]", "values": [{"measurement": "IC50", "setting": "[1]", "value": "> 1000", "unit": "nM"}, {"measurement": "IC50", "setting": "[2]", "value": "> 10000", "unit": "nM"}]}, {"smiles": "COc1cc(/C=N/NC(=O)c2cncc(-c3ccccc3OC3CCCC3)n2)cc(OC)c1", "note": "[Compound 161, (E)-6-(2-(cyclopentyloxy)phenyl)-N′-(3,5-dimethoxybenzylidene)pyrazine-2-carbohydrazide]", "values": [{"measurement": "IC50", "setting": "[1]", "value": "> 1000", "unit": "nM"}, {"measurement": "IC50", "setting": "[2]", "value": "> 10000", "unit": "nM"}]}, {"smiles": "COc1cc(/C=N/NC(=O)c2cncc(Cl)n2)cc(OC)c1", "note": "[Compound 163, (E)-6-chloro-N′-(3,5-dimethoxybenzylidene)pyrazine-2-carbohydrazide]", "values": [{"measurement": "IC50", "setting": "[1]", "value": "> 1000", "unit": "nM"}, {"measurement": "IC50", "setting": "[2]", "value": "> 10000", "unit": "nM"}]}, {"smiles": "COc1cc(/C=N/NC(=O)c2cnc(Cl)cn2)cc(OC)c1", "note": "[Compound 164, (E)-5-chloro-N′-(3,5-dimethoxybenzylidene)pyrazine-2-carbohydrazide]", "values": [{"measurement": "IC50", "setting": "[1]", "value": "> 1000", "unit": "nM"}, {"measurement": "IC50", "setting": "[2]", "value": "> 10000", "unit": "nM"}]}, {"smiles": "COc1cc(/C=N/NC(=O)c2nccnc2Cl)cc(OC)c1", "note": "[Compound 165, (E)-3-chloro-N′-(3,5-dimethoxybenzylidene)pyrazine-2-carbohydrazide]", "values": [{"measurement": "IC50", "setting": "[1]", "value": "> 1000", "unit": "nM"}, {"measurement": "IC50", "setting": "[2]", "value": "> 10000", "unit": "nM"}]}, {"smiles": "CCc1cnc(C(=O)N/N=C/c2cc(OC)cc(OC)c2)cn1", "note": "[Compound 167, (E)-N′-(3,5-dimethoxybenzylidene)-5-ethylpyrazine-2-carbohydrazide]", "values": [{"measurement": "IC50", "setting": "[1]", "value": "> 1000", "unit": "nM"}, {"measurement": "IC50", "setting": "[2]", "value": "> 10000", "unit": "nM"}]}, {"smiles": "COc1ccc(-c2cncc(C(=O)N(C)/N=C/c3cc(OC)cc(OC)c3)n2)cc1", "note": "[Compound 168, (E)-N′-(3,5-dimethoxybenzylidene)-6-(4-methoxyphenyl)-N-methylpyrazine-2-carbohydrazide]", "values": [{"measurement": "IC50", "setting": "[1]", "value": "> 1000", "unit": "nM"}, {"measurement": "IC50", "setting": "[2]", "value": "> 10000", "unit": "nM"}]}, {"smiles": "COc1cc(/C=N/NC(=O)c2cncc(N3CCC(F)(F)C(C)C3)n2)cc(OC)c1", "note": "(centres unmarked) [Compound 169, (E)-6-(4,4-difluoro-3-methylpiperidin-1-yl)-N′-(3,5-dimethoxybenzylidene)pyrazine-2-carbohydrazide]", "values": [{"measurement": "IC50", "setting": "[1]", "value": "> 1000", "unit": "nM"}, {"measurement": "IC50", "setting": "[2]", "value": "> 10000", "unit": "nM"}]}, {"smiles": "CCOc1ccc(-c2cncc(C(=O)N/N=C/c3ccccc3)n2)cc1", "note": "[Compound 170, (E)-N′-benzylidene-6-(4-ethoxyphenyl)pyrazine-2-carbohydrazide]", "values": [{"measurement": "IC50", "setting": "[1]", "value": "> 1000", "unit": "nM"}, {"measurement": "IC50", "setting": "[2]", "value": "> 10000", "unit": "nM"}]}, {"smiles": "CCOc1ccc(-c2cncc(C(=O)N/N=C/C3CCCCC3)n2)cc1", "note": "[Compound 171, (E)-N′-(cyclohexylmethylene)-6-(4-ethoxyphenyl)pyrazine-2-carbohydrazide]", "values": [{"measurement": "IC50", "setting": "[1]", "value": "> 1000", "unit": "nM"}, {"measurement": "IC50", "setting": "[2]", "value": "> 10000", "unit": "nM"}]}, {"smiles": "CCOc1ccc(-c2cncc(C(=O)N/N=C/C3CCC(F)(F)CC3)n2)cc1", "note": "[Compound 172, (E)-N′-((4,4-diflurocyclohexyl)methylene)-6-(4-ethoxyphenyl)pyrazine-2-carbohydrazide]", "values": [{"measurement": "IC50", "setting": "[1]", "value": 573, "unit": "nM"}, {"measurement": "IC50", "setting": "[2]", "value": "> 10000", "unit": "nM"}]}, {"smiles": "COc1ccc(-c2cncc(C(=O)N/N=C/C3CCCCC3)n2)cc1", "note": "[Compound 173, (E)-N′-(cyclohexylmethylene)-6-(4-methoxyphenyl)pyrazine-2-carbohydrazide]", "values": [{"measurement": "IC50", "setting": "[1]", "value": 629, "unit": "nM"}, {"measurement": "IC50", "setting": "[2]", "value": "> 10000", "unit": "nM"}]}, {"smiles": "CC(C)Oc1ccc(-c2cncc(C(=O)N/N=C/C3CCCCC3)n2)cc1", "note": "[Compound 175, (E)-N′-(cyclohexylmethylene)-6-(4-isopropoxyphenyl)pyrazine-2-carbohydrazide]", "values": [{"measurement": "IC50", "setting": "[1]", "value": 361, "unit": "nM"}, {"measurement": "IC50", "setting": "[2]", "value": 110, "unit": "nM"}]}, {"smiles": "COc1cc(/C=N/NC(=O)c2cncc(-c3ccc(C(F)F)cc3)n2)cc(OC)c1", "note": "[Compound 177, (E)-6-(4-(difluoromethyl)phenyl)-N′-(3,5-dimethoxybenzylidene)pyrazine-2-carbohydrazide]", "values": [{"measurement": "IC50", "setting": "[1]", "value": 963, "unit": "nM"}, {"measurement": "IC50", "setting": "[2]", "value": "> 1000", "unit": "nM"}]}, {"smiles": "COc1ccc(-c2cncc(C(=O)N/N=C/c3ccccc3)n2)cc1", "note": "[Compound 178, (E)-N′-benzylidene-6-(4-methoxyphenyl)pyrazine-2-carbohydrazide]", "values": [{"measurement": "IC50", "setting": "[1]", "value": 358, "unit": "nM"}, {"measurement": "IC50", "setting": "[2]", "value": 3190, "unit": "nM"}]}, {"smiles": "COc1cc(/C=N/NC(=O)c2cncc(N3CCCC(F)(F)CC3)n2)cc(OC)c1", "note": "[Compound 179, (E)-6-(4,4-difluoroazepan-1-yl)-N′-(3,5-dimethoxybenzylidene)pyrazine-2-carbohydrazide]", "values": [{"measurement": "IC50", "setting": "[1]", "value": "> 1000", "unit": "nM"}, {"measurement": "IC50", "setting": "[2]", "value": "> 10000", "unit": "nM"}]}, {"smiles": "COc1cc(/C=N/NC(=O)c2cncc(N3CCC(F)(F)CC3)n2)cc(OC)c1", "note": "[Compound 180, (E)-6-(4,4-difluoropiperidin-1-yl)-N′-(3,5-dimethoxybenzylidene)pyrazine-2-carbohyrazide]", "values": [{"measurement": "IC50", "setting": "[1]", "value": "> 1000", "unit": "nM"}, {"measurement": "IC50", "setting": "[2]", "value": "> 10000", "unit": "nM"}]}, {"smiles": "COc1ccc(-c2cncc(C(=O)N/N=C/C3CCCCCC3)n2)cc1", "note": "[Compound 181, (E)-N′-(cycloheptylmethylene)-6-(4-methoxyphenyl)pyrazine-2-carbohydrazide]", "values": [{"measurement": "IC50", "setting": "[1]", "value": 320, "unit": "nM"}, {"measurement": "IC50", "setting": "[2]", "value": 6410, "unit": "nM"}]}, {"smiles": "CCOc1ccc(-c2cncc(C(=O)N/N=C/C3CCCCCC3)n2)cc1", "note": "[Compound 182, (E)-N′-(cycloheptylmethylene)-6-(4-ethoxyphenyl)pyrazine-2-carbohyrazide]", "values": [{"measurement": "IC50", "setting": "[1]", "value": 300, "unit": "nM"}, {"measurement": "IC50", "setting": "[2]", "value": "> 10000", "unit": "nM"}]}, {"smiles": "CC(C)Oc1ccc(-c2cncc(C(=O)N/N=C/C3CCCCCC3)n2)cc1", "note": "[Compound 183, (E)-N′-(cycloheptylmethylene)-6-(4-isopropoxyphenyl)pyrazine-2-carbohyazide]", "values": [{"measurement": "IC50", "setting": "[1]", "value": 231, "unit": "nM"}, {"measurement": "IC50", "setting": "[2]", "value": 256, "unit": "nM"}]}, {"smiles": "COc1cc(/C=N/NC(=O)c2cncc(-c3ccc(OC)nc3)n2)cc(OC)c1", "note": "[Compound 184, (E)-N′-(3,5-dimethoxybenzylidene)-6-(6-methoxypyridin-3-yl)pyrazine-2-carbohydrazide]", "values": [{"measurement": "IC50", "setting": "[1]", "value": 398, "unit": "nM"}, {"measurement": "IC50", "setting": "[2]", "value": "> 10000", "unit": "nM"}]}, {"smiles": "CCOc1ccc(-c2cncc(C(=O)N/N=C/c3cc(OC)cc(OC)c3)n2)c(C(F)(F)F)c1", "note": "[Compound 187]", "values": [{"measurement": "IC50", "setting": "[1]", "value": 496, "unit": "nM"}, {"measurement": "IC50", "setting": "[2]", "value": 219, "unit": "nM"}]}]}
